Assay results from PMC9694544, “Conteltinib (CT-707) in patients with advanced ALK-positive non-small cell lung cancer: a multicenter, open-label, first-in-human phase 1 study” (BMC Medicine, 2022).
Read-outs that look alike come from different tables or passages of the source.

Key:
clinical = conditions: human, in vivo; for AUC(0-inf): read-out: AUCINF_obs; for Cmax: read-out: Cmax
Description: For single-dose PK parameters, plasma samples were taken at pre-dose and 0.5 h, 1 h, 2 h, 3 h, 4 h, 6 h, 8 h, 12 h, 24 h, 48 h, 72 h, 96 h, 120 h, 144 h, and 168 h post-dose in PK lead-in phase of dose-escalation phase, and plasma samples were also taken at pre-dose and 0.5 h, 1 h, 2 h, 3 h, 4 h, 6 h, 8 h, 12 h, and 24 h post-dose in cycle 1 day 1 of dose-expansion phase. During continuous dosing, serial plasma samples were collected at pre-dose in cycle 1 day 15, pre-dose in cycle 1 day 22, pre-dose and 0.5 h, 1 h, 2 h, 3 h, 4 h, 6 h, 8 h, 12 h, and 24 h post-dose in cycle 1 day 28 for all dose cohorts. The following PK parameters were assessed: area under the concentration-time curve from the time of dosing extrapolated to infinity, based on the last observed concentration (AUCINF_obs); area under the concentration-time curve from the time of dosing to the time of last observation (AUClast); maximum concentration (Cmax); time to maximum concentration (Tmax); elimination half-life (T1/2); and mean residence time from the time of dosing to the time of the last measurable concentration (MRTlast).

ALK WT = ALK WT (Homo sapiens, UniProt Q9UM73); test: ALK enzymatic IC50, WT; assay type: biochemical
[1] = tested on: xenograft models of ALK-positive NSCLC; conditions: crizotinib-sensitive and crizotinib-resistant tumors; cited from earlier work
ALK F1174L = ALK F1174L (Homo sapiens, UniProt Q9UM73, F1174L); test: ALK enzymatic IC50, F1174L; assay type: biochemical
Excerpt: Supplement 12916_2022_2646_MOESM1_ESM.docx, table 1 | column: ALK Enzymatic IC50 (nM)

Pyk2 = tested on: Pyk2; design: method as in PMID 27638856; conditions: less potent than the inhibition to ALK; cited from earlier work
[2] = cycle 1 day 28 of dose-escalation phase, 600 mg (n=7), mean
[3] = cycle 1 day 28 of dose-escalation phase, 800 mg (n=2), mean
[4] = single dose, PK lead-in phase of dose-escalation phase, 50 mg (n=2), mean
[5] = single dose, PK lead-in phase of dose-escalation phase, 100 mg (n=3), mean
[6] = single dose, PK lead-in phase of dose-escalation phase, 200 mg (n=3), mean
[7] = single dose, PK lead-in phase of dose-escalation phase, 300 mg (n=3), mean
[8] = single dose, PK lead-in phase of dose-escalation phase, 450 mg (n=4), mean
[9] = single dose, PK lead-in phase of dose-escalation phase, 600 mg (n=7), mean
[10] = single dose, PK lead-in phase of dose-escalation phase, 800 mg (n=3), mean

With `COc1cc(N2CCC(N3CCN(C)CC3)CC2)ccc1Nc1nc2c(c(Nc3ccccc3S(=O)(=O)NC(C)C)n1)CCN2` [Conteltinib] the MRT last (clinical; [2]) was 10.8 h, the AUC(0-inf) (clinical; [2]) was 53800 ng·h/mL and the Cmax (clinical; [2]) was 985 ng/mL. For the same compound, the half-life (clinical; cycle 1 day 28 of dose-escalation phase, 600 mg (n=7), mean, read-out: T1/2 (converted)) was 45 h, the Tmax (clinical; cycle 1 day 28 of dose-escalation phase, 600 mg (n=7), mean, read-out: Tmax) was 2.5 h and the AUC(0-t) (clinical; [3]) was 5500 ng·h/mL. For the same compound, the MRT last (clinical; [3]) was 11.6 h, the AUC(0-inf) (clinical; [3]) was 27200 ng·h/mL and the Cmax (clinical; [3]) was 305 ng/mL. For the same compound, the half-life (clinical; cycle 1 day 28 of dose-escalation phase, 800 mg (n=2), mean, read-out: T1/2 (converted)) was 52.7 h, the Tmax (clinical; cycle 1 day 28 of dose-escalation phase, 800 mg (n=2), mean, read-out: Tmax) was 3.5 h and the half-life (clinical; multiple-dose administration, read-out: mean T1/2 across dose cohorts) was 26.3 to 352 h. The Tmax (clinical; multiple-dose administration, read-out: mean Tmax across dose cohorts) was 1.5 to 4.3 h, the AUC(0-t) (clinical; [4]) was 125 ng·h/mL and the MRT last (clinical; [4]) was 8.1 h. The AUC(0-inf) (clinical; [4]) was 206 ng·h/mL, the Cmax (clinical; [4]) was 16.3 ng/mL and the half-life (clinical; single dose, PK lead-in phase of dose-escalation phase, 50 mg (n=2), mean, read-out: T1/2 (converted)) was 22.5 h. The Tmax (clinical; single dose, PK lead-in phase of dose-escalation phase, 50 mg (n=2), mean, read-out: Tmax) was 2 h, the AUC(0-t) (clinical; [5]) was 732 ng·h/mL and the MRT last (clinical; [5]) was 30.3 h. The AUC(0-inf) (clinical; [5]) was 1050 ng·h/mL, the Cmax (clinical; [5]) was 69 ng/mL and the half-life (clinical; single dose, PK lead-in phase of dose-escalation phase, 100 mg (n=3), mean, read-out: T1/2 (converted)) was 90.2 h. The Tmax (clinical; single dose, PK lead-in phase of dose-escalation phase, 100 mg (n=3), mean, read-out: Tmax) was 2.8 h, the AUC(0-t) (clinical; [6]) was 2550 ng·h/mL and the MRT last (clinical; [6]) was 47.4 h. It also gave an AUC(0-inf) (clinical; [6]) of 3110 ng·h/mL, a Cmax (clinical; [6]) of 140 ng/mL and a half-life (clinical; single dose, PK lead-in phase of dose-escalation phase, 200 mg (n=3), mean, read-out: T1/2 (converted)) of 83.5 h. For the same compound, the Tmax (clinical; single dose, PK lead-in phase of dose-escalation phase, 200 mg (n=3), mean, read-out: Tmax) was 2.7 h, the AUC(0-t) (clinical; [7]) was 4340 ng·h/mL and the MRT last (clinical; [7]) was 46.2 h. It also gave an AUC(0-inf) (clinical; [7]) of 5110 ng·h/mL, a Cmax (clinical; [7]) of 246 ng/mL and a half-life (clinical; single dose, PK lead-in phase of dose-escalation phase, 300 mg (n=3), mean, read-out: T1/2 (converted)) of 78.5 h. The Tmax (clinical; single dose, PK lead-in phase of dose-escalation phase, 300 mg (n=3), mean, read-out: Tmax) was 2.5 h, the AUC(0-t) (clinical; [8]) was 9880 ng·h/mL and the MRT last (clinical; [8]) was 40.5 h. The AUC(0-inf) (clinical; [8]) was 11500 ng·h/mL, the Cmax (clinical; [8]) was 544 ng/mL and the half-life (clinical; single dose, PK lead-in phase of dose-escalation phase, 450 mg (n=4), mean, read-out: T1/2 (converted)) was 78.7 h. The Tmax (clinical; single dose, PK lead-in phase of dose-escalation phase, 450 mg (n=4), mean, read-out: Tmax) was 3.3 h, the AUC(0-t) (clinical; [9]) was 9640 ng·h/mL and the MRT last (clinical; [9]) was 43.3 h. For the same compound, the AUC(0-inf) (clinical; [9]) was 11200 ng·h/mL, the Cmax (clinical; [9]) was 452 ng/mL and the half-life (clinical; single dose, PK lead-in phase of dose-escalation phase, 600 mg (n=7), mean, read-out: T1/2 (converted)) was 78.7 h. For the same compound, the Tmax (clinical; single dose, PK lead-in phase of dose-escalation phase, 600 mg (n=7), mean, read-out: Tmax) was 3.9 h, the AUC(0-t) (clinical; [10]) was 9820 ng·h/mL and the MRT last (clinical; [10]) was 42 h. It also gave an AUC(0-inf) (clinical; [10]) of 11200 ng·h/mL, a Cmax (clinical; [10]) of 421 ng/mL and a half-life (clinical; single dose, PK lead-in phase of dose-escalation phase, 800 mg (n=3), mean, read-out: T1/2 (converted)) of 77.2 h. The Tmax (clinical; single dose, PK lead-in phase of dose-escalation phase, 800 mg (n=3), mean, read-out: Tmax) was 3.7 h, the half-life (clinical; single-dose administration, read-out: mean T1/2 across dose cohorts) was 16.7 to 90.2 h and the Tmax (clinical; single-dose administration, read-out: mean Tmax across dose cohorts) was 2 to 4.6 h. For the same compound, the MRT last (clinical; cycle 1 day 28 of dose-expansion phase, 600 mg (n=10), mean) was 10.9 h, the half-life (clinical; single dose, cycle 1 day 1 of dose-expansion phase, 450 mg (n=10), mean, read-out: T1/2 (converted)) was 23.4 h and the IC50 (ALK WT) was 1.5 nM. For the same compound, the “anti-tumor activity in xenograft models” value [1] was “marked anti-tumor activity”, the IC50 (ALK F1174L) was 4.3 nM and the Pyk2 inhibition (Pyk2) was “inhibits”.
